Results published in US20200123127A1, “REMOVAL OF SENESCENCE-ASSOCIATED MACROPHAGES” (EVERON BIOSCIENCES, INC., priority 2016, published 2020).
Read-outs that look alike come from different tables or passages of the source.

Legend:
NF-κB = NF-κB luciferase reporter in HT1080 cells; assay type: cell-based; settings: HT1080 cells carrying IPTG-inducible p21
[1] = tested on: mSQ primary adipose-derived mesenchymal stromal cells; assay: Anti-senescent cytotoxicity, senescent vs proliferating mSQ; assay type: cell-based, Mouse; settings: for IC50: Mus musculus
[2] = tested on: human neonatal dermal fibroblasts (NDF); assay: Resazurin viability assay, senescent vs proliferating/quiescent human neonatal dermal fibroblasts; assay type: cell-based; settings: for IC50: Homo sapiens, Fibroblast
[3] = tested on: AdMSC primary adipose-derived mesenchymal stromal cells; assay: Anti-senescent cytotoxicity, senescent vs proliferating AdMSC; assay type: cell-based, Human; settings: for IC50: Homo sapiens
[4] = tested on: SK-Mel-103 melanoma cells; assay: Anti-senescent cytotoxicity, senescent vs proliferating SK-Mel-103; assay type: cell-based, Human; settings: for IC50: Homo sapiens
[5] = tested on: mLF primary lung fibroblasts; assay: Anti-senescent cytotoxicity, senescent vs proliferating mLF; assay type: cell-based, Mouse; settings: for IC50: Mus musculus, Primary lung fibroblast
Procedure: For generation senescent human neonatal dermal fibroblasts (NDFs) and adult rat dermal fibroblasts (RDFs), cells are treated at ˜10 ug/ml bleomycin for 3 days (for bleomycin-induced senescence) or irradiated once at 20 Gy using a gamma irradiator (Cs source), followed by at least 7 day recovery in fresh medium for induction of senescence. Senescent and non-senescent (proliferating) cells for each cell line are plated into 384-w plate, followed by 72 hour exposure to a dose titration of compounds. Viability measurements are estimated using the resazurin viability assay. Using GraphPad Prism 5, the IC50 values are calculated from the non-linear regression of log-transformed compound concentrations versus dose-response normalized to background and non-treated controls.
Anti-senescent selectivity is observed in primary human dermal fibroblasts (NDFs) induced to senescence via genotoxic stress, oxidative stress and replicative stress. In addition, human, rat and mouse cells senesced via bleomycin and irradiation all show sensitivity towards A1.1 treatment compared to A1.1-treated naïve cell controls.

[6] = tested on: A549 lung adenocarcinoma cells; assay: Anti-senescent cytotoxicity, senescent vs proliferating A549; assay type: cell-based, Human; settings: for IC50: Homo sapiens
[7] = tested on: RWPE-1 normal prostate epithelial cells; assay: dnPTEN-induced senescence model in RWPE-1 cells (SA-beta-Gal and methylene blue staining); assay type: cell-based; settings: 10 uM for 72 hours
Procedure: FIG. 3. Activity of A1.1 and analog A1.12 in a model of dnPTEN-induced senescence in RWPE-1 normal prostate epithelial cells. A population of transduced RWPE-1 cells containing doxycycline-inducible dnPTEN was senesced via 1 ug/ml doxycycline for 7 days. Cells which bypass senescence continued to proliferate to form a confluent monolayer. The mixed population of senescent and proliferating cells was treated with A1.1 and A1.12 at 10 uM for 72 hours. SA-beta-Gal staining was used to monitor the amount of senescent cells of treatment groups compared to non-treated control. In addition, methylene blue was used to quantitate overall cell mass, which was comprised mostly of the non-senescent, proliferating cells. Treatment with the anti-senescent compounds led to a substantial decrease in SA-beta-Gal staining, while the amount of methylene blue staining was less affected.
Senescent cells are strongly associated with benign prostate hyperplasia (BPH) and the development of prostate cancer [Vital, P. et al. (2014) The Senescence-Associated Secretory Phenotype Promotes Benign Prostatic Hyperplasia. Am J Pathol, 184(3): 721-731; Burton, D. et al. (2013). Androgen Deprivation-Induced Senescence Promoted Outgrowth of Anderogen-Refractory Protstate Cancer Cells. PLOS One, 8(6):e68003]. […] We sought to evaluate the efficacy of our compounds in a model of RWPE-1 normal prostate epithelial cells transduced with a construct for inducible loss of PTEN function [doxycycline-inducible expression of a dominant-negative PTEN (dnPTEN) mutant]. In the presence of doxycycline, a fraction of the population of transduced cells became senescent, while cells bypassing senescence continued to grow until a confluent monolayer was formed.

In the case of `O=C(NCCCc1cn[nH]c1)c1ccc(-c2ccncc2)c(C#Cc2ccc(F)cc2)c1` [OT-82], the “basal and inducible activity of NF-κB” value (NF-κB) was “inhibits both basal and inducible activity”.
With `CCOC(=O)c1sc(SCc2ccccc2)c2c1CC(c1ccc(OC)cc1)C/C2=N\O` (centres unmarked) [Example A1.1] the IC50 ([1]; light or radiation study, mSQ, senescence induction: Irradiation, read-out: Activity against Senescent Cells (IC50; uM)) was 9.9 µM, the IC50 ([1]; mSQ proliferating, read-out: Activity against Proliferating Cells (IC50; uM)) was 14.7 µM and the IC50 ([1]; mSQ, senescence induction: Bleomycin, read-out: Activity against Senescent Cells (IC50; uM)) was 6.7 µM. For the same compound, the “Selectivity (Prolif/Sen)” value ([1]; mSQ, Bleomycin) was 2.2, the “Selectivity (Prolif/Sen)” value ([1]; mSQ, Irradiation) was 1.5 and the “sensitivity of senescent vs acutely damaged or proliferating NDF cells” value ([2]; 1.875-30 μM, 72 hours, bleomycin or 15 Gy senescent vs 4 Gy acutely damaged) was “greater sensitivity”. The IC50 ([2]; NDF proliferating, read-out: Activity against Proliferating Cells (IC50; uM)) was 18.7 µM, the IC50 ([2]; NDF, senescence induction: Bleomycin, read-out: Activity against Senescent Cells (IC50; uM)) was 3.5 µM and the IC50 ([2]; NDF, senescence induction: Busulfan, read-out: Activity against Senescent Cells (IC50; uM)) was 3.6 µM. The IC50 ([2]; NDF, senescence induction: Doxorubicin, read-out: Activity against Senescent Cells (IC50; uM)) was 5.1 µM, the IC50 ([2]; NDF, senescence induction: Etoposide, read-out: Activity against Senescent Cells (IC50; uM)) was 3.8 µM and the IC50 ([2]; NDF, senescence induction: H2O2, read-out: Activity against Senescent Cells (IC50; uM)) was 3.2 µM. For the same compound, the IC50 ([2]; NDF, senescence induction: H-Ras, read-out: Activity against Senescent Cells (IC50; uM)) was 8.9 µM, the IC50 ([2]; NDF, senescence induction: Replicative (late passage), read-out: Activity against Senescent Cells (IC50; uM)) was 10.5 µM and the IC50 ([2]; light or radiation study, NDF, senescence induction: Irradiation, read-out: Activity against Senescent Cells (IC50; uM)) was 6.5 µM. The “Selectivity (Prolif/Sen)” value ([2]; NDF, Busulfan) was 5.3, the “Selectivity (Prolif/Sen)” value ([2]; NDF, Doxorubicin) was 3.7 and the “Selectivity (Prolif/Sen)” value ([2]; NDF, Etoposide) was 4.9. The “Selectivity (Prolif/Sen)” value ([2]; NDF, H2O2) was 5.9, the “Selectivity (Prolif/Sen)” value ([2]; NDF, H-Ras) was 2.1 and the “Selectivity (Prolif/Sen)” value ([2]; NDF, Replicative (late passage)) was 1.8. For the same compound, the “number of viable senescent NDF cells” value ([2]; concentrations as low as 2.5 μM, doxorubicin-, bleomycin- and gamma-irradiation-induced senescence, 72 hours) was “significantly reduced”, the “Selectivity (Prolif/Sen)” value ([3]; AdMSC, Bleomycin) was 2.3 and the IC50 ([3]; AdMSC proliferating, read-out: Activity against Proliferating Cells (IC50; uM)) was 12.6 µM. The IC50 ([3]; AdMSC, senescence induction: Bleomycin, read-out: Activity against Senescent Cells (IC50; uM)) was 5.6 µM, the IC50 ([4]; SK-Mel-103, senescence induction: Bleomycin, read-out: Activity against Senescent Cells (IC50; uM)) was 5.6 µM and the IC50 ([4]; SK-Mel-103 proliferating, read-out: Activity against Proliferating Cells (IC50; uM)) was 18.5 µM. For the same compound, the “Selectivity (Prolif/Sen)” value ([4]; SK-Mel-103, Bleomycin) was 3.3, the IC50 ([5]; light or radiation study, mLF, senescence induction: Irradiation, read-out: Activity against Senescent Cells (IC50; uM)) was 4 µM and the IC50 ([5]; mLF proliferating, read-out: Activity against Proliferating Cells (IC50; uM)) was 10.6 µM. The IC50 ([5]; mLF, senescence induction: Bleomycin, read-out: Activity against Senescent Cells (IC50; uM)) was 7.1 µM, the “Selectivity (Prolif/Sen)” value ([5]; mLF, Bleomycin) was 1.5 and the “Selectivity (Prolif/Sen)” value ([5]; mLF, Irradiation) was 2.7. The “Selectivity (Prolif/Sen)” value ([6]; A549, Bleomycin) was 3.7, the “Selectivity (Prolif/Sen)” value ([6]; A549, Irradiation) was 4.5 and the IC50 ([6]; light or radiation study, A549, senescence induction: Irradiation, read-out: Activity against Senescent Cells (IC50; uM)) was 3.7 µM. For the same compound, the IC50 ([6]; A549, senescence induction: Bleomycin, read-out: Activity against Senescent Cells (IC50; uM)) was 4.5 µM, the IC50 ([6]; A549 proliferating, read-out: Activity against Proliferating Cells (IC50; uM)) was 16.5 µM and the “proliferating cells / overall cell mass (methylene blue staining)” value [7] was “inhibit growth of proliferating cells”. The “senescent cells (number of SA-β-Gal-positive cells)” value ([7]; dnPTEN-induced senescence) was “selective elimination of senescent cells”.
